Test results as given in patent US4769389A, “Oxygenated-alkyl derivatives of glutamic and aspartic acids with antagonistic activity to bio-active polypeptides and a method for their preparation” (priority 1985, dated 1988).
In brackets after ≈: the same amount, converted by molar mass. Where two headings read alike, the source gives them in different places.

Assays:
guinea-pig gallbladder = assay: Anti-CCK activity on guinea-pig gallbladders in vitro (contraction by CCK-8); conditions: for IC50: Cavia porcellus, CCK-8 10 ng/ml, in vitro
Procedure: ANTI-CCK ACTIVITY ON GUINEA-PIG GALLBLADDERS IN VITRO A longitudinal strip of guinea-pig gallbladder is placed in a bath for isolated organs in Krebs at a temperature of 32° C. and oxygenated continuously with an oxygen-CO2 mixture (95-[…]). The isometric contractions were detected by means of a force transducer and recorded. […] The results obtained are shown in Table 3 which gives the compounds tested and the IC50 values found which were calculated by the method of regression in a test of at least three experiments for each compound studied.

guinea pig gall bladders = assay: Anti-CCK-8 activity on guinea-pig gallbladders in situ (in vivo); conditions: Cavia porcellus, iv; CCK-8 10 ng/kg i.v.; compound i.v.; read-out: ID50, anti-CCK-8 activity in situ
Procedure: In order to confirm the evidence of the studies in vitro, several of the more interesting compounds were tested in vivo with the use of guinea-pig gallbladders in situ.
The method used was that described by Ljungberg (Svensk. Farm. Tidskr. 69, 351-354, 1964).
Guinea-pigs having a weight of about 400 g anaesthetised with urethane were used; the substances being tested were administered intravenously (i.v.) into the jugular vein.
The responses of the gallbladder to the substances being tested were detected by means of a force transducer and recorded by means of a microdynamometer. 10 ng/kg of CCK 8 were chosen as the optimum contracting dose. The antagonistic compounds tested were administered in increasing doses so as to enable the calculation of an ID50 value, that is the dose (in mg/kg i.v.) having a 50% inhibiting effect against contractions induced by 10 ng/kg i.v. of CCK-8.

digestive tract = assay: Antispastic activity, vegetable carbon test (speed of transit through stomach and intestine) in mice; format: in vivo; conditions: Mus musculus, ip, read-out: A[…] ED50 (dose which reduces the intestinal transit time of the carbon by 50%), intraperitoneally
Excerpt: The anti-spastic activity which the present compounds exert on the whole of the digestive tract is also considerable. Measured in mice with the vegetable carbon test (speed of transit through the stomach and intestine) this activity is illustrated in the following table: […]

in vivo = conditions: mouse, iv
colon of rabbits = assay: Antispastic activity in the colon of rabbits stimulated with CCK-8; format: in vivo, rabbit; design: Antispastic activity in colon, EXPERIMENT 1 / Antispastic activity in colon, EXPERIMENT 2: unit not given here; conditions: CCK 100 ng/kg
Procedure: The abdomen of anaesthetised rabbit is cut open to display the tranverse colon. A small balloon full of water is inserted at an established point and connected to a pressure transducer by means of a polyethylene cannula filled with H2 O.
The optimum sensitivity being fixed in relation to the physiological contractions, the products were administered through the femeral vein. Contractions were induced by the administration of 100 ng/kg of CCK.

[1] = test system: pancreatitis in mice induced experimentally by cerulein; assay: Pancreatitis induced by cerulein in mice; format: in vivo; conditions: for ED50: Mus musculus, ip, cerulein, mice
Procedure: Adult male mice received six injections of cerulein (Takus) (50 mcg/kg) each hour for six hours.
The compound was administered 30 minutes before each administration of cerulein. Nine hours after the beginning of the treatment, the blood was taken from the rectro-orbitory plexus after anaesthesia with ether, the animals were killed and the pancreas removed and weighed.

[2] = test system: pancreatitis in rats induced experimentally by taurocholate; assay: Pancreatitis induced by sodium taurocolate in rats; format: in vivo; conditions: for ED50: Rattus norvegicus, ip, taurocholate, rats
Procedure: The products under examination were administered intraperitoneally (i.p.) 30 minutes before the operation and 3 hours after the operation. Six hours after the laparatomy the blood was removed from the retro-orbitory plexus after anaesthesia with ether, the animals were killed and the pancreas was removed and weighed. The activity of the serum amylase was determined by the method described above.

normal pancreatic cells = assay: Action on growth rate of normal pancreas induced by CCK-8 in hamsters; format: in vivo
Excerpt: (§1) Male hamsters were innoculated in the cheek pouch with a suspension of 1×10^5 tumour cells of a pancreatic adenocarcinoma.
(§2) Fifteen days after this treatment the animals were killed and the normal pancreas and the pancreatic tumours initiated in the cheek pouch were removed and weighed.
(§3) The DNA was extracted and measured by conventional methods.
(§4) The results obtained are given in Table 11 in which they are expressed as average values±S.E.

[3] = test system: pancreatic adenocarcinoma; assay: Inhibiting action on rate of growth of a pancreatic adenocarcinoma induced by CCK-8 in hamsters; format: in vivo
Excerpt: as §1, §2, §3, §4

[4] = CCK-8 8 mcg/kg three times a day

Compound: COCCCN(CCCC(C)C)C(=O)C(CCC(=O)O)NC(=O)c1ccc(Cl)c(Cl)c1 (stereo not drawn) [Compound 15]
- IC50 (guinea-pig gallbladder): 0.7 µg/mL (≈ 1.47 µM)
- ED50 (guinea pig gall bladders): 0.84 mg/kg
- ED50 (digestive tract): 44.2 mg/kg
- LD50 (in vivo): 288 mg/kg
- selectivity ratio (in vivo): 343

Compound: COCCCN(CCC(C)C)C(=O)C(CCC(=O)O)NC(=O)c1ccc(Cl)c(Cl)c1 (stereo not drawn) [Compound 19]
- IC50 (guinea-pig gallbladder): 0.6 µg/mL (≈ 1.3 µM)
- ED50 (guinea pig gall bladders): 0.74 mg/kg
- ED50 (digestive tract): 18.5 mg/kg
- LD50 (in vivo): 297 mg/kg
- selectivity ratio (in vivo): 401

Compound: CCCCCN(CCCOC)C(=O)C(CC(=O)O)NC(=O)c1ccc(Cl)c(Cl)c1 (stereo not drawn) [Compound 20]
- IC50 (guinea-pig gallbladder): 0.9 µg/mL (≈ 2.01 µM)
- ED50 (guinea pig gall bladders): 0.84 mg/kg
- ED50 (digestive tract): 27.9 mg/kg
- LD50 (in vivo): 362 mg/kg
- selectivity ratio (in vivo): 431

Compound: CCCN(CCC)C(=O)C(CCC(=O)O)NC(=O)c1ccccc1 (stereo not drawn) [Proglumide, reference compound]
- IC50 (guinea-pig gallbladder): 340 µg/mL (≈ 1020 µM)
- activity less than that of the most active compound in the invention (guinea-pig gallbladder; in vitro gallbladder): about 3000 times less
- ED50 (guinea pig gall bladders): 70.5 mg/kg
- Antispastic activity in colon, EXPERIMENT 1 (colon of rabbits; 25 mg/kg i.v.): -33.7
- Antispastic activity in colon, EXPERIMENT 2 (colon of rabbits; 25 mg/kg i.v.): 0
- Antispastic activity in colon, EXPERIMENT 1 (colon of rabbits; 50 mg/kg i.v.): -38.1
- Antispastic activity in colon, EXPERIMENT 2 (colon of rabbits; 50 mg/kg i.v.): -16.1
- Antispastic activity in colon, EXPERIMENT 1 (colon of rabbits; 100 mg/kg i.v.): -64.4
- Antispastic activity in colon, EXPERIMENT 2 (colon of rabbits; 100 mg/kg i.v.): -43.1
- ED50 (colon of rabbits; Oryctolagus cuniculus, iv): 92.6 mg/kg
- AMYLASE IN THE SERUM ([1]; 200 mg/kg ip + cerulein): 48.2 U/ml
- INHIBITION OF WEIGHT INCREASE ([1]; 200 mg/kg ip + cerulein): 53.4%
- INHIBITION OF WEIGHT INCREASE (pancreas) ([1]; 200 mg/kg ip + cerulein): 38.1%
- RATIO WEIGHT OF PANCREAS / ANIMAL WEIGHT ([1]; 200 mg/kg ip + cerulein): 0.47%
- AMYLASE IN THE SERUM ([1]; 400 mg/kg ip + cerulein): 26.2 U/ml
- INHIBITION OF WEIGHT INCREASE ([1]; 400 mg/kg ip + cerulein): 80.9%
- INHIBITION OF WEIGHT INCREASE (pancreas) ([1]; 400 mg/kg ip + cerulein): 85.7%
- RATIO WEIGHT OF PANCREAS / ANIMAL WEIGHT ([1]; 400 mg/kg ip + cerulein): 0.37%
- ED50 ([1]; read-out: ED50 (inhibition of weight increase)): 226 mg/kg
- ED50 ([1]; read-out: ED50, inhibition of weight increase of the pancreas): 241 mg/kg
- activity of proglumide in cerulein pancreatitis ([1]; in words): also active but at considerably higher doses
- AMYLASE IN THE SERUM ([2]; 200 mg/kg i.p. + taurocholate): 14.5 U/ml
- INHIBITION OF AMYLASE INCREASE ([2]; 200 mg/kg i.p. + taurocholate): 45.5%
- INHIBITION OF WEIGHT INCREASE ([2]; 200 mg/kg i.p. + taurocholate): 21.4%
- RATIO WEIGHT OF PANCREAS / ANIMAL WEIGHT ([2]; 200 mg/kg i.p. + taurocholate): 0.49%
- AMYLASE IN THE SERUM ([2]; 400 mg/kg i.p. + taurocholate): 9.1 U/ml
- INHIBITION OF AMYLASE INCREASE ([2]; 400 mg/kg i.p. + taurocholate): 89.4%
- INHIBITION OF WEIGHT INCREASE ([2]; 400 mg/kg i.p. + taurocholate): 42.8%
- RATIO WEIGHT OF PANCREAS / ANIMAL WEIGHT ([2]; 400 mg/kg i.p. + taurocholate): 0.46%
- ED50 ([2]; read-out: ED50, inhibition of amylase increase): 222 mg/kg
- ED50 ([2]; read-out: ED50, inhibition of weight increase): 467 mg/kg
- LD50 (in vivo): 2400 mg/kg
- selectivity ratio (in vivo): 34

Compound: CCK-8: biologically active component of the hormone cholecystokinin [reference compound]
- PANCREATIC DNA (normal pancreatic cells; [4]): 1.5 ± 0.06 mg
- WEIGHT OF THE PANCREAS (normal pancreatic cells; [4]): 634.8 ± 20.8 mg
- effect on normal pancreatic cells (normal pancreatic cells; in words): has a trophic action on normal pancreatic cells
- TUMORAL DNA [3, 4]: 0.7
- WEIGHT OF THE PANCREATIC CARCINOMA [3, 4]: 163.1 ± 4.7 mg
- effect on growth of a pancreatic adenocarcinoma ([3]; in words): stimulates the growth of a pancreatic adenocacinoma
